Assay results reported in patent US20070249639A1, “Use of 9H-Purine-2,6-Diamine Derivatives in the Treatment of Proliferative Diseases and Novel 9H-Purine-2,6-Diamine Derivatives” (priority 2004, published 2007).

molecular target: T1, human topoisomerase II α (Homo sapiens, UniProt P11388); assay: Topoisomerase II ATPase assay (Malachite Green); type: biochemical; settings: Percent inhibition @10 μM, Malachite Green assay; read-out: TOPO II inh. (inhibition of the TOPO ATPase activity)
T1 construct: purchased Professor Neil Osheroff (Vanderbilt University, Nashville, Tenn., USA)
T1 sequence (P11388 whole entry): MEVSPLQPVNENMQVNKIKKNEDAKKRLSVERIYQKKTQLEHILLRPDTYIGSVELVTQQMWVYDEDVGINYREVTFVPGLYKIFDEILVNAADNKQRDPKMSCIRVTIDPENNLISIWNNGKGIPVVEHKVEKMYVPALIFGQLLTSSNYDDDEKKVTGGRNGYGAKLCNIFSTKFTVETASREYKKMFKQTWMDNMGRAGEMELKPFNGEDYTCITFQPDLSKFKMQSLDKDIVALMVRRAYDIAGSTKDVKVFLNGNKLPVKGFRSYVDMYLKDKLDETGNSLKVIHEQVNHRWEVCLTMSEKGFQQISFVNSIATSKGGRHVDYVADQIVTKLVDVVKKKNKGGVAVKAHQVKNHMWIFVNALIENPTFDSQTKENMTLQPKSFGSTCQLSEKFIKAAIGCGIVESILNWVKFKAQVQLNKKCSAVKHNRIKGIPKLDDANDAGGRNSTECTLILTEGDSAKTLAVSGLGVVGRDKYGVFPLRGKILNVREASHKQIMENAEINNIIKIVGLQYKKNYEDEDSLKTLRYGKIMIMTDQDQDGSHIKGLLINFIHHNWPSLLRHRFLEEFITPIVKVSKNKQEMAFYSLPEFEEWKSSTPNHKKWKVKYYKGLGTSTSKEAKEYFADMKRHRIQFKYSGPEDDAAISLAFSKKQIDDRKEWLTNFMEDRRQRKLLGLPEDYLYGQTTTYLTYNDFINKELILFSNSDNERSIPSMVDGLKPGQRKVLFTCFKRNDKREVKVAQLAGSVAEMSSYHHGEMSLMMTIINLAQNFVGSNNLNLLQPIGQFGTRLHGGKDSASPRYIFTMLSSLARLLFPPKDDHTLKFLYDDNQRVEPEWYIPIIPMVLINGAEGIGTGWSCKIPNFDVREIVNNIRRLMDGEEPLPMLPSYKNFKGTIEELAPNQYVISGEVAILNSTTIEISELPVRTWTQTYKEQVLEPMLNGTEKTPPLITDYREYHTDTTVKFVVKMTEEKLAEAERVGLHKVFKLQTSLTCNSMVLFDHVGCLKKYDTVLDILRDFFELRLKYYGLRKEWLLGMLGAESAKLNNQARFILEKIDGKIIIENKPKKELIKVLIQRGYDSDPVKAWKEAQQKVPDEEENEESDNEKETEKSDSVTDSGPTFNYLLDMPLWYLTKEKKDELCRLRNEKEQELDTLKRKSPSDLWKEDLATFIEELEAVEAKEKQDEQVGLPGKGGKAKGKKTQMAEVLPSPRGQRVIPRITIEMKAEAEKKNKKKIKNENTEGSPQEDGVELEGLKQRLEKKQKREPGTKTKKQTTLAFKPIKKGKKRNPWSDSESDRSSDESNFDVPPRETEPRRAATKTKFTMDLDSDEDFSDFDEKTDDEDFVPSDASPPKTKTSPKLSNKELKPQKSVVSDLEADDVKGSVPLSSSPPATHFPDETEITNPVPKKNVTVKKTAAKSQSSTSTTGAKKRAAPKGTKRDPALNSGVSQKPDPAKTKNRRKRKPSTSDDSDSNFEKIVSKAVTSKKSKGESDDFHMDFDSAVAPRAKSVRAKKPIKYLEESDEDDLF
Description: The inhibition of topoisomerase II is measured as follows:
Purified human topoisomerase II α was purchased from Professor Neil Osheroff (Vanderbilt University—Nashville, Tenn., USA).
The pUC18 (Stratagene) plasmid was introduced into Escherichia coil XL-1 (Stratagene) and purified with the HiSpeed Plasmid Purification kit (Qiagen) according to the manufacturer instructions. The purity of the DNA preparations was evaluated spectrophotometrically (OD260/OD280 ratio) and by agarose gel.
Preparation of the Malachite Green Reagent:
Three volumes of 0.045% malachite green (Sigma, catalog no. M-9636) diluted in water are mixed for 20 min at room temperature with one volume of 4.2% ammonium molybdate (Axon Lab AG, catalog no. A-2246) diluted in 4 N HCl. After mixing, Triton X-100 (Merck, catalog no. 1.12298) is added to a final concentration of 0.01%. The solution is filtered at 0.2 μm and stored at room temperature in the dark.
ATP hydrolysis was monitored by measuring the production of inorganic phosphate released during the catalytic cycle of topoisomerase II α with acidic molybdate and malachite green (Lanzetta,et al., An improved assay for nanomole amounts of inorganic phosphate, Anal Biochem 1979;100:95-7). Briefly, human topoisomerase II α is pre-incubated at 37° C. for 10 min in 90 μl reaction buffer (10 mM Tris.HCl pH 7.9, 175 mM KCl, 1 mM EDTA, 2 mM DTT, 5 mM MgCl2, 2.5% glycerol) in the presence of the indicated amount of pUC18 and DMSO in F96 maxisorp Nunclmmuno plates (Nunc). The reaction is initiated by the addition of 10 μl ATP at the indicated concentrations and is carried out for 30 min at 37° C. under constant agitation. The reaction is stopped by the addition of 200 μl molybdate/malachite green solution and the absorbance is immediately measured at 630 nm. The OD630 value is measured in the absence of protein for each ATP concentration (background) is subtracted from the value obtained in the presence of enzyme. A standard curve with inorganic phosphate is used to determine the amount of inorganic phosphate produced during the reaction and to ensure that the measures are in the linear range of the assay. The kinetic parameters of the enzymes are determined from measurements (at least in duplicate) of the initial rates at different ATP concentrations. The data are analyzed with GraFit (Erithacus Software).
The compounds are tested at 10 μM of concentration to determine their inhibition potential given % of inhibition of the TOPO II ATPase activity.
For the determination of the IC50, the procedure is repeated for different concentrations of test compound selected to cover the range of 0% to 100% inhibition and the concentration at which 50% inhibition of topoisomerase II occurs (IC50) for each compound is determined from concentration-inhibition curves in a conventional manner.

Row | Compound | inhibition at 10 µM
1 | COc1cccc(Nc2nc(Nc3ccc4ncsc4c3)nc3[nH]cnc23)c1 [Example 8, N*2*-Benzothiazol-6-yl-N*6*-(3-methoxy-phenyl)-9H-purine-2,6-diamine] | < 50%
2 | CC(C)c1nc2c(NC(C)(C)C)nc(Nc3ccc4ncsc4c3)nc2[nH]1 [Example 33, N*2*-Benzothiazol-6-yl-N*6*-tert-butyl-8-isopropyl-9H-purine-2,6-diamine] | < 50%
3 | C=Cc1nc2c(NC(C)(C)C)nc(Nc3ccc4ccccc4c3)nc2[nH]1 [Example 70, N*6*-tert-Butyl-N*2*-naphthalen-2-yl-8-vinyl-9H-purine-2,6-diamine] | < 50%
4 | CC(C)(Cc1ccc(F)cc1)Nc1nc(Nc2ccc3ncsc3c2)nc2[nH]cnc12 [Example 55, N*2*-Benzothiazol-6-yl-N*6*-[2-(4-fluoro-phenyl)-1,1-dimethyl-ethyl]-9H-purine-2,6-diamine] | < 50%
5 | c1nc2c(NC3C4CC5CC(C4)CC3C5)nc(Nc3ccc4ncsc4c3)nc2[nH]1 (stereo not shown) [Example 5, N*6*-Adamantan-2-yl-N*2*-benzothiazol-6-yl-9H-purine-2,6-diamine] | 50 to 65%
6 | Cc1nc2ccc(Nc3nc(N4CCN(c5ccccn5)CC4)c4nc[nH]c4n3)cc2s1 [Example 63, (2-Methyl-benzothiazol-6-yl)-[6-(4-pyridin-2-yl-piperazin-1-yl)-9H-purin-2-yl]-amine] | < 50%
7 | c1ccc(Nc2nc(Nc3ccc4ncccc4c3)nc3[nH]cnc23)cc1 [Example 12, N*6*-Phenyl-N*2*-quinolin-6-yl-9H-purine-2,6-diamine] | 50 to 65%
8 | CC(C)(C)Nc1nc(Nc2ccc3nsnc3c2)nc2[nH]cnc12 [Example 47, N*2*-Benzo[1,2,5]thiadiazol-5-yl-N*6*-tert-butyl-9H-purine-2,6-diamine] | < 50%
9 | c1nc2c(NC3CC4CCC3C4)nc(Nc3ccc4ncsc4c3)nc2[nH]1 (stereo not shown) [Example 6, N*2*-Benzothiazol-6-yl-N*6*-bicyclo[2.2.1]hept-2-yl-9H-purine-2,6-diamine] | 50 to 65%
10 | Cc1nc2cc(Nc3nc(NC(C)(C)C)c4nc[nH]c4n3)ccc2s1 [Example 17, N*6*-tert-Butyl-N*2*-(2-methyl-benzothiazol-5-yl)-9H-purine-2,6-diamine] | < 50%
11 | CC(C)(C)Nc1nc(Nc2ccc3ccccc3c2)nc2[nH]c(Br)nc12 [Example 69, 8-Bromo-N*6*-tert-butyl-N*2*-naphthalen-2-yl-9H-purine-2,6-diamine] | 50 to 65%
12 | c1ccc(N2CCN(c3nc(Nc4ccc5ncccc5c4)nc4[nH]cnc34)CC2)nc1 [Example 61, [6-(4-Pyridin-2-yl-piperazin-1-yl)-9H-purin-2-yl]-quinolin-6-yl-amine] | < 50%
13 | c1nc2c(NC3CCCCCCC3)nc(Nc3ccc4ncsc4c3)nc2[nH]1 [Example 7, N*2*-Benzothiazol-6-yl-N*6*-cyclooctyl-9H-purine-2,6-diamine] | 50 to 65%
14 | c1cnc2ccc(Nc3nc(Nc4ccc5ncccc5c4)c4nc[nH]c4n3)cc2c1 [Example 10, N*2*,N*6*-Di-quinolin-6-yl-9H-purine-2,6-diamine] | < 50%
15 | C=C(C=Cc1nc(OCCN2CCOCC2)sc1C)Nc1nc(NC(C)(C)C)c2nc(C(C)C)[nH]c2n1 [Example 38, N*6*-tert-Butyl-8-isopropyl-N*2*-{1-methylene-3-[5-methyl-2-(2-morpholin-4-yl-ethoxy)-thiazol-4-yl]-allyl}-9H-purine-2,6-diamine] | < 50%
16 | CC(C)(C)Nc1nc(Nc2ccc3ccccc3c2)nc2[nH]c(N)nc12 [Example 43, N*6*-tert-Butyl-N*2*-naphthalen-2-yl-9H-purine-2,6,8-triamine] | 65 to 80%

Row | Compound | inhibition at 10 µM
17 | CCOC(=O)CC(C)Nc1nc(Nc2ccc3ncsc3c2)nc2[nH]c(CC)nc12 (stereo not shown) [Example 31, 3-[2-(Benzothiazol-6-ylamino)-8-ethyl-9H-purin-6-ylamino]-butyric acid ethyl ester] | < 50%
18 | CCC(C)(C)Nc1nc(Nc2ccc3ncccc3c2)nc2[nH]cnc12 [Example 52, N*6*-(1,1-Dimethyl-propyl)-N*2*-quinolin-6-yl-9H-purine-2,6-diamine] | < 50%
19 | c1ccc(N2CCN(c3nc(Nc4ccc5nsnc5c4)nc4[nH]cnc34)CC2)nc1 [Example 62, Benzo[1,2,5]thiadiazol-5-yl-[6-(4-pyridin-2-yl-piperazin-1-yl)-9H-purin-2-yl]-amine] | < 50%
20 | CC(C)(C)Nc1nc(Nc2ccc3ncsc3c2)nc2[nH]c(C3CCCC3)nc12 [Example 34, N*2*-Benzothiazol-6-yl-N*6*-tert-butyl-8-cyclopentyl-9H-purine-2,6-diamine] | < 50%
21 | C=C(C=Cc1nc(OCCN2CCOCC2)sc1C)Nc1nc(NC(C)(C)C)c2nc(C3CCCC3)[nH]c2n1 [Example 40, N*6*-tert-Butyl-8-cyclopentyl-N*2*-{1-methylene-3-[5-methyl-2-(2-morpholin-4-yl-ethoxy)-thiazol-4-yl]-allyl}-9H-purine-2,6-diamine] | 0%
22 | CCc1nc2c(NC(C)(C)C)nc(Nc3ccc4nc(OCCN5CCOCC5)sc4c3)nc2[nH]1 [Example 37, N*6*-tert-Butyl-8-ethyl-N*2*-[2-(2-morpholin-4-yl-ethoxy)-benzothiazol-6-yl]-9H-purine-2,6-diamine] | ≥ 80%
23 | CC(C)(C)Nc1nc(Nc2ccc3ncsc3c2)nc2[nH]cnc12 [Example 65, N*2*-Benzothiazol-6-yl-N*6*-tert-butyl-9H-purine-2,6-diamine] | 50 to 65%
24 | Cc1nc2ccc(Nc3nc(NC(C)(C)C)c4nc[nH]c4n3)cc2s1 [Example 19, N*6*-tert-Butyl-N*2*-(2-methyl-benzothiazol-6-yl)-9H-purine-2,6-diamine] | 50 to 65%
25 | Cc1nc2c(NC(C)(C)C)nc(Nc3ccc4ccccc4c3)nc2[nH]1 [Example 72, N*6*-tert-Butyl-8-methyl-N*2*-naphthalen-2-yl-9H-purine-2,6-diamine] | < 50%
26 | CC(C)(Cc1ccc(F)cc1)Nc1nc(Nc2ccc3nsnc3c2)nc2[nH]cnc12 [Example 57, N*2*-Benzo[1,2,5]thiadiazol-5-yl-N*6*-[2-(4-fluoro-phenyl)-1,1-dimethyl-ethyl]-9H-purine-2,6-diamine] | < 50%
27 | C=CCc1nc2c(NC(C)(C)C)nc(Nc3ccc4ccccc4c3)nc2[nH]1 [Example 71, 8-Allyl-N*6*-tert-butyl-N*2*-naphthalen-2-yl-9H-purine-2,6-diamine] | < 50%
28 | c1cncc(N2CCN(c3nc(Nc4ccc5ncsc5c4)nc4[nH]cnc34)CC2)c1 [Example 59, Benzothiazol-6-yl-[6-(4-pyridin-3-yl-piperazin-1-yl)-9H-purin-2-yl]-amine] | < 50%
29 | CC(C)(C)Nc1nc(Nc2ccc3ncccc3c2)nc2[nH]cnc12 [Example 46, N*6*-tert-Butyl-N*2*-quinolin-6-yl-9H-purine-2,6-diamine] | 50 to 65%
30 | c1nc2c(NC3CCCCCC3)nc(Nc3ccc4ncsc4c3)nc2[nH]1 [Example 66, N*2*-Benzothiazol-6-yl-N*6*-cycloheptyl-9H-purine-2,6-diamine] | < 50%
31 | CC(C)(CO)Nc1nc(Nc2ccc3ncsc3c2)nc2[nH]cnc12 [Example 68, 2-[2-(Benzothiazol-6-ylamino)-9H-purin-6-ylamino]-2-methyl-propan-1-ol] | < 50%
